Results reported in patent US10077288B2, “Hydroxystatin derivatives for the treatment of arthrosis” (Merck Patent GmbH, priority 2012, dated 2018).

What was measured:
[1] = target: T1, cathepsin D isolated from the human liver (Homo sapiens, UniProt P07339); experiment: In-vitro fluorescence assay for identification of cathepsin D inhibitors; format: biochemical; conditions: human liver cathepsin D 1.4 nM, pH 5.5; read-out: CatD assay IC50-(M)
T1 construct: cathepsin D isolated from the human liver (Sigma-Aldrich); purchased Sigma-Aldrich; host or cells: human liver (tissue-derived, not recombinant)
T1 sequence (P07339 65-161 limits assumed): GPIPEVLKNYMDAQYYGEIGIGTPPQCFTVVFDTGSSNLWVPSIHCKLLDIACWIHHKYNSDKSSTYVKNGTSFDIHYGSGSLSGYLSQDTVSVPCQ
T1 sequence (P07339 169-412 limits assumed): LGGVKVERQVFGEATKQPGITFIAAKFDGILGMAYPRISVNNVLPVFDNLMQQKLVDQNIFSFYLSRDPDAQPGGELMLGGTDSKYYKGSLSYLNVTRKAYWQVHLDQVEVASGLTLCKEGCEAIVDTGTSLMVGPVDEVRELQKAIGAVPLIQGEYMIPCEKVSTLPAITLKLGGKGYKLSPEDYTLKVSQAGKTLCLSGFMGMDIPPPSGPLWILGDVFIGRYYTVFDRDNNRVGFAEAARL
Procedure: EXAMPLE 4: IN-VITRO FLUORESCENCE ASSAY FOR IDENTIFICATION OF CATHEPSIN D INHIBITORS
In order to identify modulators of cathepsin D activity, a continuous enzymatic test was carried out with a synthetic peptide which carries a fluorescent group (MCA=(7-methoxycoumarin-4-yl)acetyl) which is quenched by energy transfer from a Dpn (2,4 dinitrophenyl) group on the same molecule, in Greiner 384-well nb microtitre plates. Cleavage of the peptidic substrate by cathepsin D causes an increase in the fluorescence intensity. In order to determine the efficacy of substances, the time-dependent increase in the fluorescence intensity in the presence of the substance was compared with the time-dependent increase in fluorescence in the absence of substances. The reference substance used was pepstatin A (Sigma-Aldrich). The substrate used was MCA-GKPILFFRLK(Dnp)d-R—NH2 (Enzo Life Sciences, Lörrach). The enzyme employed was cathepsin D isolated from the human liver (Sigma-Aldrich) in a final concentration of 1.4 nM. The test was carried out in 100 mM sodium acetate buffer, 1.25% (v/v) of DMSO, 0.25% (w/v) of Chaps, pH 5.5. 2 μl of each substance solution with serially diluted substance concentration were added to in each case 4 μl of cathepsin D solution and incubated at room temperature for 10 min. The reaction was started by addition of 2 μl of substrate solution (final concentration 5 μM). After carrying out a starting-point fluorescence measurement (excitation wavelength 340 nm/emission wavelength 450 nm) using an Envision multilabel reader (Perkin Elmer), the reaction was incubated at room temperature for 60 min. The amount of peptide fragment cleaved off during the reaction time was subsequently measured by determination of the increase in the fluorescence intensity at 450 nm (excitation wavelength 340 nm).

recombinant human renin = target: T2, recombinant human renin (Homo sapiens, UniProt P00797); experiment: In-vitro fluorescence assay for identification of renin-inhibitory activity; format: biochemical; conditions: recombinant human renin 10 nM, FRET substrate 5 μM, pH 7.2; read-out: Renin selectivity IC50
T2 construct: purchased Proteos, Kalamazoo, Mich
T2 sequence (P00797 67-406): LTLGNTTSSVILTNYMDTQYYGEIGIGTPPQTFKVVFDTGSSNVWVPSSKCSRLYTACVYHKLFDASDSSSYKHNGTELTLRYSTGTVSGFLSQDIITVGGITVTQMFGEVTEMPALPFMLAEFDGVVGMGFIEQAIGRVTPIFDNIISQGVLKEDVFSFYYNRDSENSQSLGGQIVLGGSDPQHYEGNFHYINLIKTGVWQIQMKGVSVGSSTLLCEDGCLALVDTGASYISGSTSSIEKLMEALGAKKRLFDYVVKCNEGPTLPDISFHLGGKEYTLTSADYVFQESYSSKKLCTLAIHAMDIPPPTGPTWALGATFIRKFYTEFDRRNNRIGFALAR
Procedure: EXAMPLE 8: IN-VITRO FLUORESCENCE ASSAY FOR IDENTIFICATION OF RENIN-INHIBITORY ACTIVITY
In order to identify modulators of renin activity, a continuous enzymatic test was carried out with a synthetic peptide which carries a fluorescent group Edans (=(5-(aminoethyl)aminonaphthalenesulfonate) which is quenched by energy transfer from a Dabcyl (4′-dimethylaminoazobenzene-4-carboxylate) group on the same molecule, in Greiner 384-well microtitre plates. Cleavage of the peptidic substrate by renin causes an increase in the fluorescence intensity. In order to determine the efficacy of substances, the time-dependent increase in the fluorescence intensity in the presence of the substance was compared with the time-dependent increase in fluorescence in the absence of substances. The reference substance used was renin inhibitor 2 (Z-Arg-Arg-Pro-Phe-His-Sta-Ile-His N-Boc-Lys methyl ester Z) (Sigma-Aldrich). The substrate used was renin FRET substrate I (DABCYL-g-Abu-Ile-His-Pro-Phe-His-Leu-Val-Ile-His-Thr-EDANS) (Anaspec, Fremont Calif.). The enzyme employed was recombinant human renin (Pro-teos, Kalamazoo, Mich.) in a final concentration of 10 nM. The test was carried out in 50 mM Mops buffer, 1.5% (v/v) of DMSO, 0.1% (w/v) of Igepal®, pH 7.2, 0.5% (w/v) of BSA. 2 μl of each substance solution with serially diluted substance concentration were added to in each case 4 μl of renin solution and incubated at room temperature for 15 min. The reaction was started by addition of 4 μl of substrate solution (final concentration 5 μM). After carrying out a starting-point fluorescence measurement (excitation wavelength 340 nm/emission wavelength 495 nm) using an Envision multilabel reader (Perkin Elmer), the reaction was incubated at 37° C. for 60 min. The amount of peptide fragment cleaved off during the reaction time was subsequently measured by determination of the increase in the fluorescence intensity at 495 nm (excitation wavelength 340 nm).
Result: all compounds measured have an IC50 of the renin selectivity of >30 μM (see Table 2 in Example 1).

Row | IC50 [1] | IC50 (recombinant human renin) | SMILES
1 | 2.3e-07 M | > 30000 nM | CC[C@H](C)[C@H](NC(=O)C[C@H](O)[C@H](Cc1ccccc1)NC(=O)[C@@H](NC(=O)C(C)(C)Oc1ccc2ccccc2c1)C(C)C)C(=O)N[C@H](C(=O)OCc1ccccc1)C(C)C [Compound 3, benzly (S)-2-[(2S,3S)-2-((3S,4S)-3-hydroxy-4-{(S)-3-methyl-2-[2-methyl-2-(naphthalen-2-yloxy)propionylamino]butyrylamino}-5-phenylpentanoylamino)-3-methylpentanoylamino]-3-methylbutyrate]
2 | 1.8e-09 M |  | CC[C@H](C)[C@H](NC(=O)C[C@H](O)[C@H](Cc1ccccc1)NC(=O)[C@@H](NC(=O)[C@H](CC(C)C)NC(=O)CC(C)C)C(C)C)C(=O)NC1CCCC1 [Compound 46, N-((1S,2S)-1-cyclopentylcarbamoyl-2-methylbutyl)-(2S,5S)-3-hydroxy-4-{(S)-3-methyl-2-[(S)-4-methyl-2-(3-methylbutyrylamino)-pentanoylamino]butyrylamino}-5-phenylpentanamide]
3 | 2.6e-10 M |  | CCC[C@H](NC(=O)C[C@H](O)[C@H](Cc1ccccc1)NC(=O)[C@@H](NC(=O)[C@H](CC(C)C)NC(=O)CC(C)C)C(C)C)C(=O)NC(CC)CC [Compound 48, N—[(S)-1-(1-ethylpropylcarbamoyl)butyl]-(3S,4S)-3-hydroxy-4-{(S)-3-methyl-2-[(S)-4-methyl-2-(3-methylbutyrylamino)pentanoylamino]-butyrylamino}-5-phenylpentanamide]

Second part, the molecule before the results:

Row | SMILES | IC50 [1] | IC50 (recombinant human renin)
4 | CC[C@H](C)[C@H](NC(=O)C[C@H](O)[C@H](Cc1ccccc1)NC(=O)[C@@H](NC(=O)CCc1ccccc1)C(C)C)C(=O)N[C@H](C(=O)OCc1ccccc1)C(C)C [Compound 1, benzly (S)-2-((2S,3S)-2-{(3S,4S)-3-hydroxy-4-[(S)-3-methyl-2-(3-phenylpropionylamino)butyrylamino]-5-phenylpentanoylamino}-3-methylpentanoylamino)-3-methylbutyrate] | 7.9e-08 M | > 30000 nM
5 | CC[C@H](C)[C@H](NC(=O)C[C@H](O)[C@H](Cc1ccccc1)NC(=O)[C@@H](NC(=O)Cc1ccc(OC)cc1)C(C)C)C(=O)N[C@H](C(=O)O)C(C)C [Compound 15, (S)-2-[(2S,3S)-2-((3S,4S)-3-hydroxy-4-{(S)-2-[2-(4-methoxyphenyl)-acetylamino]-3-methylbutyrylamino}-5-phenylpentanoylamino)-3-methylpentanoylamino]-3-methylbutyric acid] | 3.9e-08 M | > 30000 nM
6 | CC[C@H](C)[C@H](NC(=O)C[C@H](O)[C@H](Cc1ccccc1)NC(=O)[C@@H](NC(=O)Cc1ccccc1OC)C(C)C)C(=O)N[C@H](C(=O)O)C(C)C [Compound 28, (S)-2-[(2S,3S)-2-((3S,4S)-3-hydroxy-4-{(S)-2-[2-(2-methoxyphenyl)-acetylamino]-3-methylbutyrylamino}-5-phenylpentanoylamino)-3-methylpentanoylamino]-3-methylbutyric acid] | 1.6e-07 M | > 30000 nM
7 | CCC(CC)NC(=O)[C@@H](NC(=O)C[C@H](O)[C@H](Cc1ccccc1)NC(=O)[C@@H](NC(=O)[C@H](CC(C)C)NC(=O)CC(C)C)C(C)C)C(C)C [Compound 47, N—[(S)-1-(1-ethylpropylcarbamoyl)-2-methylpropyl]-(3S,4S)-3-hydroxy-4-{(S)-3-methyl-2-[(S)-4-methyl-2-(3-methylbutyrylamino)-pentanoylamino]butyrylamino}-5-phenylpentanamide] | 6.5e-10 M | 
8 | CC[C@H](C)[C@H](NC(=O)C[C@H](O)[C@H](Cc1ccccc1)NC(=O)[C@@H](NC(=O)[C@H](CC(C)C)NC(=O)CC(C)C)C(C)C)C(=O)NC(C)(C)CCO [Compound 49, N-[(1S,2S)-1-(3-hydroxy-1,1-dimethylpropylcarbamoyl)-2-methylbutyl]-(3S,4S)-3-hydroxy-4-{(S)-3-methyl-2-[(S)-4-methyl-2-(3-methylbutyrylamino)pentanoylamino]butyrylamino}-5-phenylpentanamide] | 2.1e-10 M | 
